Reference: patent publication US12473298B2, “Amide compounds, preparation method therefor, and use thereof in the medical field” (Shanghai Synergy Pharmaceutical Sciences Co., Ltd., priority 2019, dated 2025)
Where two headings read alike, the source gives them in different places.

Assays:
Mutant type EZH2(A677G) = Mutant type EZH2(A677G) (Homo sapiens (Human), UniProt Q15910, A677G); experiment: AlphaLISA, mutant type PRC2 complex EZH2(A677G); type: biochemical
Mutant type EZH2(Y641N) = Mutant type EZH2(Y641N) (Homo sapiens (Human), UniProt Q15910, Y641N); experiment: AlphaLISA, mutant type PRC2 complex EZH2(Y641N); type: biochemical; settings: read-out: Mutant type EZH2(Y641N) IC50 Nanomoles per Liter
Sequence of Mutant type EZH2(Y641N) (Q15910 whole entry Y641N): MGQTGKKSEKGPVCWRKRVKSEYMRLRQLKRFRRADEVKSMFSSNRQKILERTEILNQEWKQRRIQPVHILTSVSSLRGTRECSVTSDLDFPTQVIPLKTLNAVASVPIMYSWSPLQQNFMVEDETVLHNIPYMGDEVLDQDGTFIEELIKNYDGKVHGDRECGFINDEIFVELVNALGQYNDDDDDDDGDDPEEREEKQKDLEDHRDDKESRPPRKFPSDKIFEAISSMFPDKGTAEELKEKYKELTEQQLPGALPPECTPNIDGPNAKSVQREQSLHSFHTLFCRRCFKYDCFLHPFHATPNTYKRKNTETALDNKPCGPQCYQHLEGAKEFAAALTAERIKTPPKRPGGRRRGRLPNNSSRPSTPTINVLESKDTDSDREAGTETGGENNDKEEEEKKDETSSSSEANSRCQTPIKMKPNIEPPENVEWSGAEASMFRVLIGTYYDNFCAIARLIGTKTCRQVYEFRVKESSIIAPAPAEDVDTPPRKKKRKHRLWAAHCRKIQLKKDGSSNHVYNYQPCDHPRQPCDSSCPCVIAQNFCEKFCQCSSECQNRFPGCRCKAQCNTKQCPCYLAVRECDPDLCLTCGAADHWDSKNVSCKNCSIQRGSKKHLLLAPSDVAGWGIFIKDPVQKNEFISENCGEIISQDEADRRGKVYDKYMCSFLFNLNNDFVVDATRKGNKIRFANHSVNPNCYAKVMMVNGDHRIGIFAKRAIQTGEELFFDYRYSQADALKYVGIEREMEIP
Sequence of Mutant type EZH2(Y641N) (O75530 whole entry partner): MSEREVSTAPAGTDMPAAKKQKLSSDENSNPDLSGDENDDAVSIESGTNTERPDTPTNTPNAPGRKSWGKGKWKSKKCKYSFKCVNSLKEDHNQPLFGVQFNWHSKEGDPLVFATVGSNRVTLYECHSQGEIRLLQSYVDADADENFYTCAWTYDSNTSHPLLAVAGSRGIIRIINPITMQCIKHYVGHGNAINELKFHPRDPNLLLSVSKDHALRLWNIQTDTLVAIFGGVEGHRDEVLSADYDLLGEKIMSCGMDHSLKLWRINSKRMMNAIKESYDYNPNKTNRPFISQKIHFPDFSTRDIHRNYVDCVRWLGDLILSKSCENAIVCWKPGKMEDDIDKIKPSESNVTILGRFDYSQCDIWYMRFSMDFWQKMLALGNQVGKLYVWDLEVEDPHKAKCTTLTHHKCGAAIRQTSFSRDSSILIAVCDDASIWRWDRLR
Sequence of Mutant type EZH2(Y641N) (Q15022 whole entry partner): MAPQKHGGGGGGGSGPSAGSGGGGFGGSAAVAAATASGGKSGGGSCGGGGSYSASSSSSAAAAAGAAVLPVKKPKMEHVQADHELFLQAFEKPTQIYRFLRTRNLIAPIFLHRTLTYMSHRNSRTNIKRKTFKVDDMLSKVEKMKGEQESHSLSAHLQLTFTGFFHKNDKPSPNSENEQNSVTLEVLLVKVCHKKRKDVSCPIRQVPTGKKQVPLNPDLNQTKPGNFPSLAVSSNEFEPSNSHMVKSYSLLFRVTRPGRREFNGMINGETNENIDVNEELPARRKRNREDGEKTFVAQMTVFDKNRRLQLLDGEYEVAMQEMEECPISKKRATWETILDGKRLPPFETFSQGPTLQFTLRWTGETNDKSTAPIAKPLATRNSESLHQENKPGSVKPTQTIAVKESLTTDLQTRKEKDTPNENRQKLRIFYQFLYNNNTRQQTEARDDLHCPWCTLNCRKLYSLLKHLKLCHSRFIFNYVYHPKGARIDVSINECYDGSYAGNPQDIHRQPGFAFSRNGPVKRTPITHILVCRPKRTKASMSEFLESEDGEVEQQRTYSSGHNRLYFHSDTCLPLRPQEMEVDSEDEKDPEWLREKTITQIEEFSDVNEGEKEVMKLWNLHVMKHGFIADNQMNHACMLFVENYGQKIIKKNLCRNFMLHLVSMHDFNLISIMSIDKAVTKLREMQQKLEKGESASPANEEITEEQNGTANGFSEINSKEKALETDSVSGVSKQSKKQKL
Sequence of Mutant type EZH2(Y641N) (Q09028 whole entry partner): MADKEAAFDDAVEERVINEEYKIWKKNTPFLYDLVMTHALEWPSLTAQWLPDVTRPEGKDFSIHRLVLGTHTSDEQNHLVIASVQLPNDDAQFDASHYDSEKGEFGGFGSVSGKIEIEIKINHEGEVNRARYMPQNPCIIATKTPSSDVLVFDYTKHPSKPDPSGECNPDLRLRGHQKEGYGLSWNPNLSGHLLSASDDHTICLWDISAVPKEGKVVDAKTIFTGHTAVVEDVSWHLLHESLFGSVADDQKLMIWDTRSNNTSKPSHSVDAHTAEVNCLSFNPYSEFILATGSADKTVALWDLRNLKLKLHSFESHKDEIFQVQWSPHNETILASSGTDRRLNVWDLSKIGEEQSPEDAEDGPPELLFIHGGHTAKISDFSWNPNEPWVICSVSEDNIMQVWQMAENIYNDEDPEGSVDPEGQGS
Sequence of Mutant type EZH2(Y641N) (Q6ZN18 whole entry partner): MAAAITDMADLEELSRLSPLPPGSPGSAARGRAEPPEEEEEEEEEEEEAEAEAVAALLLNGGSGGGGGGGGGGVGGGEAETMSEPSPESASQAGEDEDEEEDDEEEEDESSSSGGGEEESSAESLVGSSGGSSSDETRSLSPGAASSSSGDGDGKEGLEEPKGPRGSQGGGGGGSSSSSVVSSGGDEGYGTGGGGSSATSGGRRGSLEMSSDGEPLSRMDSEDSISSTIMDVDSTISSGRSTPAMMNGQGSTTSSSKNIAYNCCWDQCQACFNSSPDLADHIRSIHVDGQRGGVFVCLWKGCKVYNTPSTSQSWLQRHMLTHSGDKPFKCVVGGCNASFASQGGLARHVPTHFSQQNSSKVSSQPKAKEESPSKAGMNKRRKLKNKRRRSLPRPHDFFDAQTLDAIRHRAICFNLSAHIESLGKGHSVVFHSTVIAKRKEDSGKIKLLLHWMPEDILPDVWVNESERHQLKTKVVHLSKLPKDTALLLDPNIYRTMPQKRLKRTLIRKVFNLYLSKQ

Mutant type EZH2(Y641F) = Mutant type EZH2(Y641F) (Homo sapiens (Human), UniProt Q15910, Y641F); experiment: AlphaLISA, mutant type PRC2 complex EZH2(Y641F); type: biochemical; settings: read-out: Mutant type EZH2(Y641F) IC50 Nanomoles per Liter
Sequence of Mutant type EZH2(Y641F) (Q15910 whole entry Y641F): as the sequence (Q15910 whole entry Y641N) above, with N641F counted along it
Sequence of Mutant type EZH2(Y641F) (O75530 whole entry partner): as the sequence (O75530 whole entry partner) above
Sequence of Mutant type EZH2(Y641F) (Q15022 whole entry partner): as the sequence (Q15022 whole entry partner) above
Sequence of Mutant type EZH2(Y641F) (Q09028 whole entry partner): as the sequence (Q09028 whole entry partner) above
Sequence of Mutant type EZH2(Y641F) (Q6ZN18 whole entry partner): as the sequence (Q6ZN18 whole entry partner) above

[1] = test system: human diffuse large B-cell lymphoma cells (Karpas 422 cell); experiment: Karpas 422 cell proliferation, Calcein AM staining; type: cell-based
[2] = Pharmacokinetic experiment in rats; type: in vivo, SD rats
Method: A certain amount of compound was weighted and dissolved in 0.1% Tween under vortex and ultrasound, and 0.5% carboxymethyl cellulose sodium (CMC-NA) solution was added to form a uniform solution.

wild-type EZH2 = wild-type EZH2 (Homo sapiens (Human), UniProt Q15910); experiment: radiometric assay, activity to wild-type EZH2 of PRC2
Sequence of wild-type EZH2 (Q15910 whole entry): as the sequence (Q15910 whole entry Y641N) above, with N641Y counted along it
Sequence of wild-type EZH2 (O75530 whole entry partner): as the sequence (O75530 whole entry partner) above
Sequence of wild-type EZH2 (Q15022 whole entry partner): as the sequence (Q15022 whole entry partner) above
Method: 25 μL of reaction solution was transferred to a scintillation plate, which was incubated at room temperature for 1 hour (h) and washed with deionized water and 0.1% Tween 20 for three times. A PerkinElmer liquid scintillation/luminescence counter was used to read the value, and GraphPad Prism 5 was used to calculate the median inhibitory concentration (IC50) of the compounds.

[3] = test system: human diffuse large cell lymphoma B lymphocytes (Pfeiffer cell); experiment: Pfeiffer cell proliferation, Calcein AM staining; type: cell-based
Text: The diffuse large cell lymphoma B lymphocytes (Pfeiffer cells) were collected and counted when growing well.

[4] = read-out: Mutant type EZH2(A677G) IC59 Nanomoles per Liter
[5] = Homo sapiens, KARPAS-422, data of 14th day, read-out: Karpas422 Proliferation IC50 Nanomoles per Liter
[6] = Homo sapiens, Pfeiffer, data of 14th day, read-out: Pfeiffer Proliferation IC50 Nanomoles per Liter
[7] = male, SD, rat, in vivo, iv, 4 mg/kg
[8] = male, SD, rat, in vivo, po, 20 mg/kg
[9] = read-out: Wild-type EZH2 IC50 Nanomoles per Liter
[10] = Homo sapiens, KARPAS-422, read-out: Karpas422 Proliferation IC50 Nanomoles per Liter (nM)
[11] = Homo sapiens, Pfeiffer, read-out: Pfeiffer Proliferation IC50 Nanomoles per Liter (nM)

Sequence of Mutant type EZH2(A677G) (Q15910 whole entry A677G): as the sequence (Q15910 whole entry Y641N) above, with N641Y, A677G counted along it
Sequence of Mutant type EZH2(A677G) (O75530 whole entry partner): as the sequence (O75530 whole entry partner) above
Sequence of Mutant type EZH2(A677G) (Q15022 whole entry partner): as the sequence (Q15022 whole entry partner) above
Sequence of Mutant type EZH2(A677G) (Q09028 whole entry partner): as the sequence (Q09028 whole entry partner) above
Sequence of Mutant type EZH2(A677G) (Q6ZN18 whole entry partner): as the sequence (Q6ZN18 whole entry partner) above

| SMILES | IC50 (Mutant type EZH2(A677G); [4]) | IC50 (Mutant type EZH2(Y641N)) | IC50 (Mutant type EZH2(Y641F)) | IC50 [1, 5] | IC50 (wild-type EZH2) | IC50 [3, 6] | IC50 (wild-type EZH2; [9]) | other results |
| --- | --- | --- | --- | --- | --- | --- | --- | --- |
| CCN(c1cc(-c2ccc3c(c2)N(C(C)C(C)C)CC32CCOCC2)c(Cl)c(C(=O)NCc2c(C)cc(C)[nH]c2=O)c1C)C1CCOCC1 (stereo not shown) [Example 55, 2-chloro-N-((4,6-dimethyl-2-oxo-1,2-dihydropyridin-3-yl)methyl)-5-(ethyl(tetrahydro-2H-pyran-4-yl)amino)-6-methyl-3-(1-(3-methylbutyl-2-yl)-2′,3′,5′,6′-tetrahydrospiro[dihydroindole-3,4′-pyran]-6-yl)benzamide] | 420 pM | 300 pM | 580 pM | 0.97 nM | 630 pM | 0.65 nM |  | AUC ([2]; male, SD, rat, plasma, rats, Intravenous-Dose 4 mg/kg, read-out: Area Curve (AUC, ng/mL · h)): 933 ng·h/mL; half-life ([2]; male, SD, rat, plasma; rats, Intravenous-Dose 4 mg/kg; read-out: Half life T1/2, h) (converted)): 1.53 h; AUC ([2]; male, SD, rat, plasma, rats, Oral-Dose 20 mg/kg, read-out: Area Curve (AUC, ng/mL · h)): 1270 ng·h/mL; Cmax ([2]; male, SD, rat, plasma, rats, Oral-Dose 20 mg/kg, read-out: Blood Drug level (Cmax, ng/mL)): 438 ng/mL; bioavailability ([2]; male, SD, rat, plasma, rats, oral 20 mg/kg vs intravenous 4 mg/kg, read-out: Bioavailability (P %)): 27.1% |
| CCN(c1cc(-c2ccc3c(c2)NC(=O)C32CCN(C3COC3)CC2)cc(C(=O)NCc2c(C)cc(C)[nH]c2=O)c1C)C1CCOCC1 [Example 84, N-((4,6-dimethyl-2-oxo-1,2-dihydropyridin-3-yl)methyl)-3-(ethyl(tetrahydro-2H-pyran-4-yl)amino)-2-methyl-5-(1′-(oxetan-3-yl)-2-oxospiro[dihydroindole-3,4′-piperidine]-6-yl)benzamide] | 470 pM | 250 pM | 630 pM | 1.86 nM |  | 1.74 nM | 2130 pM | AUC [2, 7]: 933 ng·h/mL; half-life [2, 7]: 1.38 h; AUC [2, 8]: 1190 ng·h/mL; Cmax [2, 8]: 501 ng/mL; bioavailability [2, 8]: 25.4% |
| CCN(c1cc(-c2ccc3c(c2)NC(=O)C32CCN(C(C)=O)CC2)cc(C(=O)NCc2c(C)cc(C)[nH]c2=O)c1C)C1CCOCC1 [Example 88] | 510 pM | 420 pM | 610 pM | 2.76 nM | 960 pM | 1.56 nM |  |  |
| CCN(c1cc(-c2ccc3c(c2)NC(=O)C32CCC(F)(F)CC2)cc(C(=O)NCc2c(C)cc(C)[nH]c2=O)c1C)C1CCOCC1 [Example 91, 5-(4,4-difluoro-2′-oxospiro[cyclohexane-1,3′-dihydroindole]-6′-yl)-N-((4,6-dimethyl-2-oxo-1,2-dihydropyridin-3-yl)methyl)-3-(ethyl(tetrahydro-2H-pyran-4-yl)amino)-2-methylbenzamide] | 710 pM | 240 pM | 490 pM | 1.87 nM |  | 1.08 nM | 950 pM |  |
| CCN(c1cc(-c2ccc3c(c2)NC(=O)C32CCC(=O)CC2)cc(C(=O)NCc2c(C)cc(C)[nH]c2=O)c1C)C1CCOCC1 [Example 92, N-((4,6-Dimethyl-2-oxo-1,2-dihydropyridin-3-yl)methyl)-5-(2′,4-dioxospiro[cyclohexane-1,3′-dihydroindole]-6′-yl)-3-(ethyl(tetrahydro-2H-pyran-4-yl)amino)-2-methylbenzamide] | 570 pM | 370 pM | 680 pM | 2.83 nM |  | 1.83 nM | 870 pM |  |
| CCN(c1cc(-c2ccc3c(c2)NC(=O)C32CCC(O)CC2)cc(C(=O)NCc2c(C)cc(C)[nH]c2=O)c1C)C1CCOCC1 (stereo not shown) [Example 94, N-((4,6-dimethyl-2-oxo-1,2-dihydropyridin-3-yl)methyl)-3-(ethyl(tetrahydro-2H-pyran-4-yl)amino)-5-(4-hydroxy-2′-oxospiro[cyclohexane-1,3′-dihydroindole]-6′-yl)-2-methylbenzamide] | 770 pM | 620 pM | 730 pM | 4.74 nM |  | 3.83 nM | 1310 pM |  |
| CCN(c1cc(-c2ccc3c(c2)NC(=O)C32CCNCC2)cc(C(=O)NCc2c(C)cc(C)[nH]c2=O)c1C)C1CCSCC1 [Example 97, N-((4,6-Dimethyl-2-oxo-1,2-dihydropyridin-3-yl)methyl)-3-(ethyl(tetrahydro-2H-thiapyran-4-yl)amino)-2-methyl-5-(2-oxospiro[dihydroindole-3,4′-piperidine]-6-yl)benzamide] | 380 pM | 370 pM | 590 pM | 2.7 nM |  | 1.53 nM | 850 pM |  |
| CCN(c1cc(-c2ccc3c(c2)NC(=O)C32CCOCC2)cc(C(=O)NCc2c(OC)cc(C)[nH]c2=O)c1C)C1CCC(N(C)C)CC1 (stereo not shown) [Example 100] | 780 pM | 420 pM | 790 pM | 2.85 nM | 1050 pM | 2.73 nM |  |  |
| CCN(c1cc(-c2cnc3c(c2)NC(=O)C32CCOCC2)cc(C(=O)NCc2c(C)cc(C)[nH]c2=O)c1C)C1CCOCC1 [Example 101, N-((4,6-Dimethyl-2-oxo-1,2-dihydropyridin-3-yl)methyl)-3-(ethyl(tetrahydro-2H-pyran-4-yl)amino)-2-methyl-5-(2′-oxo-1′,2,2′,3,5,6-hexahydrospiro[pyran-4,3′-pyrrolo[3,2-b]pyridine]-6′-yl)benzamide] | 820 pM | 570 pM | 950 pM | 3.68 nM |  | 2.74 nM | 1160 pM |  |
| CCN(c1cc(-c2ccc3c(c2)NC(=O)C32CCOCC2)cc(C(=O)NCc2c(C)cc(C)[nH]c2=O)c1C)C1CCOCC1OC (stereo not shown) [Example 102, N-((4,6-Dimethyl-2-oxo-1,2-dihydropyridin-3-yl)methyl)-3-((ethyl)(3-methoxytetrahydro-2H-pyran-4-yl)amino)-2-methyl-5-(2-oxo-2′,3′,5′,6′-tetrahydrospiro[dihydroindole-3,4′-pyran]-6-yl)benzamide] | 730 pM | 450 pM | 890 pM | 3.87 nM |  | 3.45 nM | 960 pM |  |
| CCN(c1cc(-c2ccc3c(c2)C2(CC=C(F)CC2)C(=O)N3)cc(C(=O)NCc2c(C)cc(C)[nH]c2=O)c1C)C1CCOCC1 (stereo not shown) [Example 118, N-((4,6-dimethyl-2-carbonyl-1,2-dihydropyridin-3-yl)methyl)-3-(ethyl(tetrahydro-2H-pyran-4-yl)amino)-5-(4-fluoro-2′-carbonylspiro[cyclohexano-1,3′-dihydroindole]-3-ene-5′-yl)-2-methylbenzamide] |  | 320 pM | 580 pM |  | 910 pM |  |  | IC50 (Mutant type EZH2(A677G)): 450 pM; IC50 [1, 10]: 1.68 nM; IC50 [3, 11]: 1.05 nM |
| CCN(c1cc(-c2ccc3c(c2)C2(CCC(F)CC2)C(=O)N3)cc(C(=O)NCc2c(C)cc(C)[nH]c2=O)c1C)C1CCOCC1 (stereo not shown) [Example 119, 5-(4-Fluoro-2′-carbonylspiro[cyclohexano-1,3′-dihydroindole]-5′-yl)-N-((4,6-dimethyl-2-carbonyl-1,2-dihydropyridin-3-yl)methyl)-3-(ethyl(tetrahydro-2H-pyran-4-yl)amino)-2-methylbenzamide] |  | 630 pM | 950 pM |  | 980 pM |  |  | IC50 (Mutant type EZH2(A677G)): 760 pM; IC50 [1, 10]: 4.15 nM; IC50 [3, 11]: 3.52 nM |
| CCN(c1cc(-c2ccc3c(c2)NC(=O)C32CCOCC2)cc(C(=O)NCc2c(OC)cc(C)[nH]c2=O)c1C)C1CCC(N(C)CCOC)CC1 (stereo not shown) [Example 120, 3-(Ethyl(4-((2-methoxyethyl)(methyl)amino)cyclohexyl)amino)-N-((4-methoxy-6-methyl-2-oxo-1,2-dihydropyridin-3-yl)methyl)-2-methyl-5-(2-oxo-2′,3′,5′,6′-tetrahydrospiro[dihydroindole-3,4′-pyran]-6-yl)benzamide] | 530 pM | 480 pM | 680 pM | 4.47 nM |  | 2.96 nM | 1260 pM |  |
| CCN(c1cc(-c2ccc3c(c2)NC(=O)C32CCOCC2)cc(C(=O)NCc2c(C)cc(C)[nH]c2=O)c1C)C1CCC(N(C)C2COC2)CC1 (stereo not shown) [Example 121, N-((4,6-dimethyl-2-oxo-1,2-dihydropyridin-3-yl)methyl)-3-(ethyl(4-(methyl(oxetan-3-yl)amino)cyclohexyl)amino)-2-methyl-5-(2-oxo-2′,3′,5′,6′-tetrahydrospiro[dihydroindole-3,4′-pyran]-6-yl)benzamide] | 680 pM | 530 pM | 740 pM | 3.54 nM |  | 2.36 nM | 1040 pM |  |
| CCN(c1cc(-c2ccc3c(c2)C2(CCOCC2)C(=O)N3C)cc(C(=O)NCc2c(OC)cc(C)[nH]c2=O)c1C)C1CCN(CC(F)(F)F)CC1 [Example 123, 3-(Ethyl(1-(2,2,2-trifluoroethyl)piperidin-4-yl)amino)-N-((4-methoxy-6-methyl-2-oxo-1,2-dihydropyridin-3-yl)methyl)-2-methyl-5-(1-methyl-2-oxo-2′,3′,5′,6′-tetrahydrospiro[dihydroindole-3,4′-pyran]-5-yl)benzamide] | 720 pM | 520 pM | 920 pM |  |  |  | 1150 pM | IC50 ([1]; data of 14th day, read-out: Karpas422 Proliferation IC50 Nanomoles per Liter): 3.23 nM; IC50 ([3]; data of 14th day, read-out: Pfeiffer Proliferation IC50 Nanomoles per Liter): 2.84 nM |
